The source of these data is ChEMBL document CHEMBL5244240, “MmpL3 inhibitors as antituberculosis drugs” (Eur J Med Chem, 2020).

The subject of series [1] is Mycobacterium tuberculosis. Put plainly: Antitubercular activity against Mycobacterium tuberculosis H37Rv. It is filed as functional.
Series [2] in a line: Clearance in mouse microsomes. It is filed as ADME, Microsome.
Series [3] relates to Mycobacterium tuberculosis. Put plainly: Antitubercular activity against Mycobacterium tuberculosis infected in mouse assessed as log reduction in bacterial burden in lung at 300 mg/kg. In kind it is functional.
Series [4] deals with Mycobacterium tuberculosis. Nature of the series: Antitubercular activity against Mycobacterium tuberculosis infected in mouse assessed as log reduction in bacterial burden in lung at 100 mg/kg. It is filed as functional.
The test system of series [5] is Mycobacterium tuberculosis. Put plainly: Antitubercular activity against Mycobacterium tuberculosis H37Rv infected in mouse macrophage. In kind it is functional.
A short description of series [6]: Elimination half life in mouse at 25 mg/kg, po. It is filed as ADME, organism-based. As to conditions: in vivo, read-out: beta t1/2 (converted).
Series [7] is described as follows: Clearance in mouse at 25 mg/kg, po. Particulars: in vivo. In kind it is ADME, organism-based.
Series [8] can be described thus: Tmax in mouse at 25 mg/kg, po. It is filed as ADME, organism-based. Particulars: in vivo.
Series [9] is described as follows: Volume of distribution at steady state in mouse at 25 mg/kg, po. It is filed as ADME, organism-based. As to conditions: in vivo.
The test system of series [10] is Mycobacteroides abscessus. Nature of the series: Antitubercular activity against Mycobacterium abscessus CIP104536. In kind it is functional.
The test system of series [11] is Mycobacterium tuberculosis. Nature of the series: Antitubercular activity against replicating Mycobacterium tuberculosis H37Rv. It is filed as functional.
The subject of series [12] is Mycobacterium tuberculosis. Nature of the series: Bactericidal activity against replicating Mycobacterium tuberculosis H37Rv. In kind it is functional.
In series [13] the test system is Mycobacterium tuberculosis. Put plainly: Antitubercular activity against Mycobacterium tuberculosis H37Rv infected in mouse assessed as log reduction in CFU in lung at 100 mg/kg. In kind it is functional.
The subject of series [14] is Mycobacterium tuberculosis. Put plainly: Antitubercular activity against Mycobacterium tuberculosis H37Rv infected in mouse assessed as log reduction in CFU in lung at 50 mg/kg. It is filed as functional.
The test system of series [15] is Mycobacteroides abscessus. Put plainly: Antimycobacterial activity against Mycobacterium abscessus smooth variant. It is filed as functional.
The subject of series [16] is Mycobacteroides abscessus. Nature of the series: Antimycobacterial activity against Mycobacterium abscessus rough variant. It is filed as functional.
Series [17] has as its system Mycobacterium tuberculosis. Nature of the series: Antitubercular activity against non replicating Mycobacterium tuberculosis bacilli by low oxygen recovery assay. In kind it is functional.
Series [18] concerns Mycobacterium tuberculosis. Nature of the series: Antitubercular activity against replicating Mycobacterium tuberculosis bacilli. It is filed as functional.
The test system of series [19] is Mycobacterium tuberculosis. Nature of the series: Antitubercular activity against non-replicating Mycobacterium tuberculosis H37Rv. In kind it is functional.
In series [20] the test system is Mycobacterium tuberculosis. Put plainly: Antitubercular activity against Mycobacterium tuberculosis […]. In kind it is functional.

In brackets after ≈: the same amount, converted by molar mass.

Consider `Cc1c(CN2CCOCC2)cc(-c2ccc(C(C)C)cc2)n1-c1ccc(F)cc1`, for which, in series [1], 0.12 µM was the least that counted as inhibitory (MIC). Also, in series [2], the CLH is 1.4 mL/min/g.

As for `CCc1ccc([C@H]2C[C@@H](C(F)(F)F)n3ncc(C(=O)NCc4ccc5c(c4)OCO5)c3N2)cc1`, the “log(activity)” value in [3] is 2.2; in [4], 1.5. In [1], it took 0.16 µM to inhibit growth (MIC).

As for `CCCn1cnc2cc(NCc3ccc(Cl)cc3Cl)ccc21`, the 90% effect level in [1] (IC90) was put at 16 µM.

In the case of `CCc1ccc([C@H]2C[C@@H](C(F)(F)F)n3ncc(C(=O)NCc4ccc(OC)cc4)c3N2)cc1`, the MIC80 in series [5] came out at 0.16 µM (≈ 0.0734 µg/mL). In [1], this molecule displayed an MIC of 0.3 µM.

With `CC1(C)CCC(NC(=O)c2cc3c(Cl)cc(Cl)cc3[nH]2)CC1`, the half-life in series [6] is 5.25 h. This molecule returned a CL/F in series [7] of 18.1 mL/min/kg. The Tmax in series [8] stood at 1.5 h. Further, the Vdss in [9] was 4.11 L/kg.

For the molecule `Cc1cc2nc(CCC3CCCCC3)[nH]c2cc1C`, the MIC in series [10] came to 0.125 µg/mL (≈ 0.488 µM); in series [1] it was 0.75 µg/mL.

In the case of `FC(F)(F)Oc1ccc(Oc2ccc(CNCCNC3C4CC5CC(C4)CC3C5)cc2)cc1` (stereo not given), the MIC99 in series [11] came out at 2.5 µM (≈ 1.15 µg/mL). In addition, in [12], the MBC99 was found to be 5 µM (≈ 2.3 µg/mL).

Consider `FC(F)(F)Oc1ccc(Oc2ccc(CN3CCC4(CC3)OCCc3sccc34)cc2)cc1`, for which the “log(activity)” value was 2.7 in [13] and 2.3 in [14]. Moreover, the minimal inhibitory concentration (MIC) in series [1] was determined as 0.06 µM. This molecule also gave a CLH in series [2] of 1.2 mL/min/g.

With `Cc1ccccc1CN1CCC(O)(c2ccc(Cl)c(C(F)(F)F)c2)CC1`, the MIC in series [15] and in series [16] was 0.32 µM (≈ 0.123 µg/mL) throughout.

Regarding `CC1(C)CCC(NC(=O)c2cc3c(F)cc(F)cc3[nH]2)CC1`, the half-life in series [6] is 4.47 h. The molecule further gave a CL/F in series [7] of 18.7 mL/min/kg. In series [8], the Tmax was 1.5 h. This molecule gave a Vdss in series [9] of 2.24 L/kg.

Consider `Cc1c(CN2CCN(C)CC2)cc(-c2ccc(Cl)cc2)n1-c1ccc(Cl)cc1`, for which the MIC turned out to be 18.5 µM (≈ 7.67 µg/mL) in series [17] and 5 µM (≈ 2.07 µg/mL) in [18].

As for `CC(C)=CCC/C(C)=C\CNCCNC1C2CC3CC(C2)CC1C3` (stereo not given), the MIC in [11] and in [19] was 0.7 µM (≈ 0.231 µg/mL) throughout.

For `c1cc2c(s1)CCOC21CCN(Cc2ccc3c(c2)OCCO3)CC1`, 0.3 µM was the least that counted as inhibitory in series [1] (MIC). In addition, the CLH in series [2] is > 30 mL/min/g.

For `COc1ccc(-c2cc(CN3CCSCC3)c(C)n2-c2ccc(F)cc2)cc1`, the MIC in series [1] stood at 0.2 µM. In series [2], this molecule gave a CLH of 18.76 mL/min/g.

Molecule `O=C(NCCc1ccc(Cl)cc1)C1(c2cccs2)CCCCC1` registered an MIC99 in series [20] of 19.3 µM (≈ 6.71 µg/mL). This lies in the double-digit micromolar range.

One may read the MIC as the smallest concentration in the dilution series that meets the test's criterion for growth inhibition. The term IC90 denotes the point of the concentration-response curve where the effect stands at 90%. Read a high IC90 as weaker potency. As a reminder, the CL/F is the apparent clearance, not corrected for the fraction that reaches the circulation. As a reminder, the Tmax is the time from dosing to the highest level. For orientation: MIC99 means an inhibitory concentration at the 99% level, which refers to growth in some studies and to a panel of isolates in others.
